These results are taken from patent US20020012738A1, “Low calorie fat compositions” (priority 2000, published 2002).

Series [1] deals with T1, porcine lipase (Sus scrofa, UniProt P00591).
T1 sequence (P00591 1-450): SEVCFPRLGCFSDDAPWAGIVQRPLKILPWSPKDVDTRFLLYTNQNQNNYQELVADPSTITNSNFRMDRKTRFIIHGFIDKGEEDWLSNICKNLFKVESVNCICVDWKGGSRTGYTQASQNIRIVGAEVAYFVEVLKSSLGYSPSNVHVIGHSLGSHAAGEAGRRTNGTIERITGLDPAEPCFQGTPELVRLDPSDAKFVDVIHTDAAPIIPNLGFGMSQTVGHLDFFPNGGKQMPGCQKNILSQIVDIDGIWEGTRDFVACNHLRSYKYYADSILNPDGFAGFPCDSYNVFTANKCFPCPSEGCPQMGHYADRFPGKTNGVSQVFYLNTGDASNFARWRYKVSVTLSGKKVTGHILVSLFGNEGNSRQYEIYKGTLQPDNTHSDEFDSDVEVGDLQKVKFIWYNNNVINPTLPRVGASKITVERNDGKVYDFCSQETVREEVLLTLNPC
Description: Hydrolysis by pancreatic lipase, aqueous emulsion assay. It is filed as in vitro ADME. Particulars: 30° C., Bis-Tris propane buffer pH 7.8, HMPC, sodium cholate, 300 mg fat, unit assumed. How it is done:
The digestibility of the wax esters derived from long chain and medium chain combinations (III and IV) of the present invention were done to compare with triolein and wax esters derived from long chain acids and long chain alcohols. The in-vitro assays were done using two emulsion systems as in the following procedure. A mixture of 300 mg of the fat/fat substitute, 4 ml of Bis-Tris propane buffer (10 mM, pH 7.8), 5 ml of hydroxyproylmethylcellulose (HMPC, […]), 0.5 ml of sodium cholate (0.1 M) were sonicated to disperse the fats and incubated at 30° C. Porcine lipase (0.5 ml, 20 mg/ml) was added. The analysis of the reaction was carried out as in the above organic solution assay.

Series [2] addresses T1, porcine lipase. Kind of series: Hydrolysis by pancreatic lipase, organic solution assay. Particulars: 30° C., tamyl alcohol, Bis-Tris propane buffer pH 7.8, 300 mg fat, unit assumed. It is filed as in vitro ADME. On the procedure:
The digestibility of the wax esters derived from long chain and medium chain combinations (III and IV) of the present invention were done to compare with triolein and wax esters derived from long chain acids and long chain alcohols. The in-vitro assays were done using two emulsion systems as in the following procedure. Each digest was carried out with 300 mg of the fat/fat substitute, 9 ml of the ^tamyl alcohol, 0.5 ml of Bis-Tris propane buffer (10 mM, pH 7.8) and 0.5 ml of porcine lipase (20 mg/mi). The reaction was incubated at 30° C. and the reaction stopped by adding 1 ml aliquots to 3 ml of isopropanol/heptane/sulfuric acid (40/10/1). The product was extracted with heptane and analyzed by GC and GC-MS at 360° C.

Regarding `CCCCCCCCCCCCCCCCCCCC(=O)OCCCCCC` [Hexyl arachidate], the Hydrolysis by pancreatic lipase, Aqueous Emulsion Assay 24 hr at porcine lipase [1] is 11.7%. On porcine lipase [2], the Hydrolysis by pancreatic lipase, Organic Solution Assay 24 hr came to 5.4%.

For `CCCCCCCC/C=C\CCCCCCCC(=O)OCC(COC(=O)CCCCCCC/C=C\CCCCCCCC)OC(=O)CCCCCCC/C=C\CCCCCCCC` [Triolein, reference compound], the Hydrolysis by pancreatic lipase, Aqueous Emulsion Assay 24 hr at porcine lipase [1] came to 93.3%. At porcine lipase [2], the Hydrolysis by pancreatic lipase, Organic Solution Assay 24 hr is 69.2%.

In the case of `CCCCCCCCCCCCCCCCCCCCOC(=O)CCCCCCC` [Arachidyl caprylate], the Hydrolysis by pancreatic lipase, Aqueous Emulsion Assay 24 hr on porcine lipase [1] is 14.7%. For the same molecule, the Hydrolysis by pancreatic lipase, Organic Solution Assay 24 hr at porcine lipase [2] was determined as 7.6%.

For the molecule `CCCCCCCCCCCCCCCCCCCCOC(=O)CCCCC` [Arachidyl caproate], the Hydrolysis by pancreatic lipase, Aqueous Emulsion Assay 24 hr at porcine lipase [1] was determined as 4%. The Hydrolysis by pancreatic lipase, Organic Solution Assay 24 hr at porcine lipase [2] turned out to be 2.2%.
